Test results reported in patent publication US5349127A, “Expression of herbicide metabolizing cytochromes P450” (priority 1992, dated 1994).

Legend:
S. ambofaciens PH3818 = assay: Metabolism of 10001 by strains transformed with pCS325 (Example 15); format: in vitro ADME, Streptomyces ambofaciens; details: substrate 10001
Procedure: (§1) S. griseolus PH2003, S. griseus PH4001, S. ambofaciens PH4002, and S. lividans JI1326 were transformed with the plasmid pPAT108. The transformed S. griseolus strain, PH3826, was cultured for 24 hours in 150 mls of sporulation broth with 5 ug/ml thiostrepton. The transformed S. griseus strain, PH3832, and the transformed S. ambofaciens strain, PH3834, were cultured for 24 hours in 150 mls of trypticase soy broth with 5 ug/ml thiostrepton. The transformed S. lividans strain, PH3822, was similarly cultured in 150 mls of YEME broth with 5 ug/ml thiostrepton. Three hours before harvesting the cells, 50 mls of fresh medium of the same type with 5 ug/ml thiostrepton was added to each culture. The cells from each of the cultures were harvested by centrifugation, washed twice with 50 mMMOPS, pH7.2 and resuspended in five cell volumes of MOPS containing 0.2% glucose and 120 ug/ml of the sulfonylurea 10001. The cell suspensions were incubated at 30° C. with shaking and aliquots were removed at 0.5, 1, 2 and 4 hours. The supernatant of each aliquot was analyzed by HPLC and the concentration of the sulfonylurea compound 10001 and its metabolites 10002 and 10003 were determined.
S. griseolus PH2003, S. griseus PH4001, S. ambofaciens PH4002, and S. lividans JI1326 were transformed with the plasmid pCS325. Cells of the transformed strains of S. griseolus PH3809, S. griseus PH3817, S. ambofaciens PH3818, and S. lividans PH3816, were grown and treated as described in Example 14, and the concentrations of the sulfonylurea compound 10001 and its metabolites 10002 and 10003 were determined.

S. ambofaciens PH4002 = assay: Metabolism of 10001 by untransformed strain (Example 14); format: in vitro ADME, Streptomyces ambofaciens; details: substrate 10001 120 ug/ml
S. griseus PH3832 = assay: Metabolism of 10001 by strains transformed with pPAT108 (Example 14); format: in vitro ADME, Streptomyces griseus; details: substrate 10001 120 ug/ml
Procedure: as §1

SMILES	concentration in supernatant (S. ambofaciens PH3818; 0.5 h)	concentration in supernatant (S. ambofaciens PH3818; 1.0 h)	concentration in supernatant (S. ambofaciens PH3818; 2.0 h)	concentration in supernatant (S. ambofaciens PH3818; 4.0 h)	concentration in supernatant (S. ambofaciens PH4002; 1.0 h)	concentration in supernatant (S. ambofaciens PH4002; 4.0 h)	concentration in supernatant (S. griseus PH3832; 0.5 h)	concentration in supernatant (S. griseus PH3832; 1.0 h)	concentration in supernatant (S. griseus PH3832; 2.0 h)	concentration in supernatant (S. griseus PH3832; 4.0 h)
COc1cc(Cl)nc(NC(=O)NS(=O)(=O)c2ccccc2C(=O)O)n1 [compound 10003, N-[(4-chloro-6-methoxy-pyrimidin-2-yol)aminocarbonyl]-2-carboxybenzenesulfonamide]	1 µM	3 µM	7 µM	13 µM	0 µM	0 µM	9 µM	26 µM	46 µM	80 µM
CCOC(=O)c1ccccc1S(=O)(=O)NC(=O)Nc1nc(Cl)cc(OC)n1 [compound 10001, N-[(4-chloro-6-methoxy-pyrimidin-2-yl)aminocarbonyl]-2-ethoxycarbonylbenzenesulfonamide]	286 µM	265 µM	210 µM	129 µM	406 µM	412 µM	281 µM	238 µM	177 µM	77 µM
